According to patent publication US7390910B2, “Compounds for treating tumors” (priority 2003, dated 2008):
Marks after values point to notes of the source that are not given here. Where a SMILES comes first, the peptide text is derived from it. [ ]: non-standard residue; d: D form. NMePhe(β,β-Me2) = CN[C@H](C(=O)O)C(C)(C)c1ccccc1; Tle = CC(C)(C)[C@H](N)C(=O)O; NMeV = CN[C@H](C(=O)O)C(C)C

How the values were obtained:
[1] = system: bovine microtubule-associated protein (MAP)-rich tubulin; type: biochemical
Method: Tubulin Polymerization Assays. For in vitro tubulin polymerization assays, bovine microtubule-associated protein (MAP)-rich tubulin, PEM buffer [80 mM Na-PIPES (pH 6.9), 1 mM MgCl2, and 1 mM EGTA], and GTP are purchased from Cytoskeleton (Denver, Colo.). MAP-rich tubulin (final concentration 1.5 mg/ml) is dissolved in cold PEM buffer containing 1 mM GTP (GPEM) and centrifuged at 12,000×g for 10 min at 4° C. The tubulin solution (100 μl/well) is added rapidly to wells of a low-volume, 96-well plate already containing duplicate aliquots (10 μl) of test compounds in GPEM. […] Control wells contained the same final concentration of DMSO (0.3%). After initiation of the reaction, absorbance at 340 nm is measured every minute for 60 min at 24° C. using a SpectraMax Plus plate reader (Molecular Devices, Sunnyvale, Calif.).

[2] = system: KB cells; assay: cells; type: cell-based; conditions: for IC50: 3 days, SRB
Method: (§1) Cell Survival Assay: Standard Pharmacological Test Procedure. […] Compounds are incubated with cells for 3 days.

[3] = system: KB85; assay: cells; type: cell-based; conditions: for IC50: 3 days, SRB
Method: as §1

[4] = system: KBV1; assay: cells; type: cell-based; conditions: for IC50: 3 days, SRB; for inhibition at 3 µM: KB-V1, 3000 nM
Method: as §1

Row | Molecule | Tubulin Polym. % inhibition at 0.3 uM [1] | IC50 ([2]; Homo sapiens, KB, 72 h) [nM] | IC50 ([3]; 72 h) [nM] | inhibition at 3 µM ([4]; Homo sapiens) [%] | other results
1 | CN[C@H](C(=O)N[C@H](C(=O)N(C)[C@H](/C=C(\C)C(=O)N1CCOCC1)C(C)C)C(C)(C)C)C(C)(C)c1cc(C)cc(C)c1 [Example 3, N,β,β,3,5-Pentamethyl-L-phenylalanyl-N^1-[(1S,2E)-1-isopropyl-3-methyl-4-morpholin-4-yl-4-oxobut-2-enyl]-N^1,3-dimethyl-L-valinamide] | 51% | 70 | 176 |  | IC50 ([4]; Homo sapiens, KB-V1, 72 h): 1760 nM
2 | CN[C@@H](C(=O)N[C@H](C(=O)N(C)[C@H](/C=C(\C)C(=O)N1CCOCC1)C(C)C)C(C)(C)C)C(C)(C)c1cc(C)cc(C)c1 [Example 5, N,β,β,3,5-Pentamethyl-D-phenylalanyl-N^1-[(1S,2E)-1-isopropyl-3-methyl-4-morpholin-4-yl-4-oxobut-2-enyl]-N^1,3-dimethyl-L-valinamide] | 57% | 207 | 459 | 40 | 
3 | CNC(C(=O)NC(C(=O)N(C)C(C=C(C)C=C(C)C(=O)O)C(C)C)C(C)(C)C)C(C)(C)c1ccccc1 (centres unmarked) [Example 79, 6-{[3,3-Dimethyl-2-(3-methyl-2-methylamino-3-phenyl-butyrylamino)-butyryl]-methyl-amino}-2,4,7-trimethyl-octa-2,4-dienoic acid] |  | 27 | 53 |  | Tubulin Polym. % inhibition at 0.5 uM [1]: 90*** %; IC50 ([4]; Homo sapiens, KB-V1, 72 h): 1580 nM
4 | 3-hydroxy-N-methyl-L-valyl-N^1-[(1S,2E)-4-ethoxy-1-isopropyl-3-methyl-4-oxo-2-butenyl]-N^1,3-dimethyl-L-valinamide and 3-hydroxy-N,N-dimethyl-L-valyl-N^1-[(1S,2E)-4-ethoxy-1-isopropyl-3-methyl-4-oxo-2-butenyl]-N^1,3-dimethyl-L-valinamide [Example 61] |  |  |  |  | Tubulin Polym. % inhibition at 0.5 uM [1]: 40*** %; IC50 [2]: 151 nM; IC50 [3]: 293 nM; IC50 [4]: > 3000 nM
5 | CN[C@H](C(=O)N[C@H](C(=O)N(C)[C@H](/C=C(\C)C(=O)N1CCN(C)CC1)C(C)C)C(C)(C)C)C(C)(C)c1cc(C)cc(C)c1 [Example 8, N,β,β,3,5-Pentamethyl-L-phenylalanyl-N^1-[(1S,2E)-1-isopropyl-3-methyl-4-(4-methylpiperazin-1-yl)-4-oxobut-2-enyl]-N^1,3-dimethyl-L-valinamide] | 68% | 35 | 56 |  | IC50 ([4]; Homo sapiens, KB-V1, 72 h): 1620 nM
6 | CN[C@H](C(=O)N[C@H](C(=O)N(C)[C@H](C(=O)N1CCC[C@H]1C(=O)OC)C(C)C)C(C)(C)C)C(C)(C)c1ccccc1 [Example 33, Methyl N,β,β-trimethyl-L-phenylalanyl-3-methyl-L-valyl-N-methyl-L-valyl-L-prolinate] (H-[NMePhe(β,β-Me2)][Tle][NMeV]P-OMe) | 19% | 18 | 53 |  | IC50 ([4]; Homo sapiens, KB-V1, 72 h): 1530 nM
7 | CN[C@H](C(=O)N[C@H](C(=O)N(C)[C@H](/C=C(\C)C(=O)c1ncc[nH]1)C(C)C)C(C)(C)C)C(C)(C)c1ccccc1 [Example 88, (2S)-N-[(1S,2E)-4-(1H-imidazol-2-yl)-1-isopropyl-3-methyl-4-oxobut-2-enyl]- -trimethyl-2-{[(2S)-3-methyl-2-(methylamino)-3-phenylbutanoyl]amino}butanamide] | 91% |  |  |  | IC50 [2]: 218 nM; IC50 [3]: 1360 nM; KBV1 % inhibition @ 3000 nM [4]: 0%
8 | CN[C@H](C(=O)N[C@H](C(=O)N(C)[C@H](/C=C(\C)C(=O)N1CCCC[C@H]1C(=O)O)C(C)C)C(C)(C)C)C(C)(C)c1ccccc1 [Example 50, N,β,β-trimethyl-L-phenylalanyl-N^1-{(1S,2E)-4-[(2S)-2-carboxypiperidin-1-yl]-1-isopropyl-3-methyl-4-oxobut-2-enyl}-N^1,3-dimethyl-L-valinamide] | 84(2) % | 64 | 270 | 9 | 
9 | Ethyl (E,4S)-4-[((2S)-2-{[(2S)-2-azido-3-methyl-3-phenylbutanoyl]amino}-3,3 -dimethylbutanoyl)(methyl)amino]-2,5-dimethyl-2-hexenoate and ethyl (E,4S)-4-[((2S)-2-{[(2R)-2-azido-3-methyl-3-phenylbutanoyl]amino}-3,3-dimethylbutanoyl)(methyl)amino]-2,5-dimethyl-2-hexenoate [Example 93] |  |  |  |  | IC50 [2]: 2510 nM; KB85 % inhibition @ 3000 nM ([3]; 3000 nM): 30%; KBV1 % inhibition @ 3000 nM [4]: 30%
10 | CN[C@H](C(=O)N[C@H](C(=O)N(C)[C@H](/C=C/P(=O)(OC)OC)C(C)C)C(C)(C)C)C(C)(C)c1ccccc1 [Example 68, N,β,β-trimethyl-L-phenylalanyl-N^1-[(1S,2E)-3-(dimethoxyphosphoryl)-1-isopropylprop-2-enyl]-N^1,3-dimethyl-L-valinamide] | 45% | 1980 | 2080 | 8 | 
11 | CN[C@H](C(=O)N[C@H](C(=O)N(C)[C@H](/C=C(\C)C(=O)N1CCC[C@H]1C(=O)O)C(C)C)C(C)(C)C)C(C)(C)c1cc(C)cc(C)c1 [Example 20, N,β,β,3,5-Pentamethyl-L-phenylalanyl-N^1-{(1S,2E)-4-[(2S)-2-carboxypyrrolidin-1-yl]-1-isopropyl-3-methyl-4-oxobut-2-enyl}-N^1,3-dimethyl-L-valinamide] | 80% | 82 | 664 | 3 | 
12 | CN[C@H](C(=O)N[C@H](C(=O)N(C)[C@H](/C=C(\C)C(=O)N1CCN(C)CC1)C(C)C)C(C)(C)C)C(C)(C)c1cccc(C)c1.O=C(O)C(F)(F)F [Example 6, N,β,β,3-Tetramethyl-L-phenylalanyl-N^1-[(1S,2E)-1-isopropyl-3-methyl-4-(4-methylpiperazin-1-yl)-4-oxobut-2-enyl]-N^1,3-dimethyl-L-valinamide trifluoroacetic acid salt] | 64% | 64 | 123 | 33 | 
13 | CN[C@H](C(=O)N[C@H](C(=O)N(C)[C@H](/C=C(\C)C(C)O)C(C)C)C(C)(C)C)C(C)(C)c1ccccc1 (stereo partly drawn) [Example 78, N,β,β-trimethyl-L-phenylalanyl-N-1-[(1S,2E)-4-hydroxy-1-isopropyl-3-methylpent-2-enyl]-N-1,3-dimethyl-L-valinamide] | 75% |  |  |  | IC50 [2]: 63 nM; IC50 [3]: 172 nM; IC50 [4]: 1460 nM
14 | CN[C@H](C(=O)N[C@H](C(=O)N(C)[C@H](/C=C(\C)C(=O)N1CCC[C@H]1C(=O)O)C(C)C)C(C)(C)C)C(C)(C)c1cccc(Cl)c1 [Example 24, 3-Chloro-N,β,β-trimethyl-L-phenylalanyl-N^1-{(1S,2E)-4-[(2S)-2-carboxypyrrolidin-1yl]-1-isopropyl-3-methyl-4-oxobut-2-enyl}-N^1,3-dimethyl-L-valinamide] | 94% | 62 | 180 | 17 | 
15 | CN[C@H](C(=O)N[C@H](C(=O)N(C)[C@H](/C=C(\C)C(=O)c1ccccc1)C(C)C)C(C)(C)C)C(C)(C)c1ccccc1 [Example 80, N,β,β-trimethyl-L-phenylalanyl-N-1-[(1S,2E)-1-isopropyl-3-methyl-4-oxo-4-phenylbut-2-enyl]-N-1,3-dimethyl-L-valinamide] | 70% |  |  |  | IC50 [2]: 725 nM; IC50 [3]: 1330 nM; IC50 [4]: 1800 nM
16 | CN[C@H](C(=O)N[C@H](C(=O)N(C)[C@H](/C=C/S(=O)(=O)O)C(C)C)C(C)(C)C)C(C)(C)c1ccccc1 [Example 64, N,β,β-trimethyl-L-phenylalanyl-N^1-[(1S,2E)-1-isopropyl-3-sulfoprop-2-enyl]-N^1,3-dimethyl-L-valinamide] | 86% |  |  | 0 | inhibition at 3 µM ([2]; Homo sapiens, 72 h, 3000 nM): 2%; inhibition at 3 µM ([3]; 3000 nM): 1%
17 | CN[C@H](C(=O)N[C@H](C(=O)N(C)[C@H](/C=C(\C)C(=O)N1CCC[C@@H]1C(=O)OC)C(C)C)C(C)(C)C)C(C)(C)c1ccccc1 [Example 41, N,β,β-trimethyl-L-phenylalanyl-N^1-{(1S,2E)-4-[(2R)-2-(methoxycarbonyl)pyrrolidin-1-yl]-1-isopropyl-3-methyl-4-oxobut-2-enyl}-N^1,3-dimethyl-L-valinamide] | 96% | 16 | 51 |  | IC50 ([4]; Homo sapiens, KB-V1, 72 h): 1100 nM
18 | CN[C@H](C(=O)N[C@H](C(=O)N(C)[C@H](/C=C(\C)C(=O)O)C(C)C)C(C)(C)C)C12CC3CC(CC(C3)C1)C2 [Example 55, (2E,4S)-4-[{N-[(2S)-2-(1-adamantyl)-2-(methylamino)ethanoyl]-3-methyl-L-valyl}(methyl)amino]-2,5-dimethyl-2-hexenoic acid] | 66% | 603 | 646 | 13 | 
19 | CN[C@@H](C(=O)N[C@H](C(=O)N(C)[C@H](/C=C(\C)C(=O)O)C(C)C)C(C)(C)C)C12CC3CC(CC(C3)C1)C2 [Example 56, (2E,4S)-4-[{N-[(2R)-2-(1-adamantyl)-2-(methylamino)ethanoyl]-3-methyl-L-valyl}(methyl)amino]-2,5-dimethyl-2-hexenoic acid] |  | 468 | 575 | 11 | 
